Like-named read-outs stand apart in the source and are kept apart here.
Molecular target: human P2X7 receptor (Homo sapiens, UniProt Q99572, R270H/Y155H)
Assay: Evaluation of human P2X7 receptor inhibitory activity (Yo-Pro uptake, BzATP stimulation, FLIPR TETRA)
Type: cell-based
Procedure, shortened: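 1321N1 cells stably expressing human P2X7 (T606C/G952A SNP variant), in HBSS buffer pH 7.4-7.5 with Yo-Pro, stimulated with BzATP; compound added 8 min after agonist. Fluorescence followed for 20 min on FLIPR; max-minus-min change gave % inhibition, IC50 by logistic fit.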

[1] = 1321N1 cells stably expressing human P2X7 receptor, BzATP stimulation, Yo-Pro uptake, read-out: IC50 (antagonistic activity for the human P2X7 receptor), class symbol
[2] = antagonistic activity for the human P2X7 receptor, read-out: IC50
[3] = 1321N1 cells stably expressing human P2X7 receptor, BzATP stimulation, Yo-Pro uptake, read-out: IC50 (antagonistic activity for the human P2X7 receptor)

| SMILES | IC50 [1] | IC50 [2] | other results |
| --- | --- | --- | --- |
| COc1cc(C)c(Nc2nc(=O)c(OC)cn2Cc2cccc(F)c2)cc1OC [Compound I-0274] | < 10 nM |  |  |
| COc1cc(C)c(Nc2nc(=O)c(OC)cn2Cc2ccc(F)c(Cl)c2)cc1OC [Compound I-0229] | < 10 nM |  |  |
| COc1cn(Cc2cc(F)cc(Cl)c2)c(Nc2cc(C)c(OC(F)F)cc2C)nc1=O [Compound I-0529] | 10 to 100 nM |  |  |
| COc1cn(Cc2ccc(F)cc2)c(Nc2cccc(C)c2C)nc1=O [Compound I-0141] | 10 to 100 nM |  |  |
| O=c1nc(Nc2cccc3[nH]ccc23)n(Cc2cc(F)c(F)c(F)c2)cc1F [Compound I-1023] |  | < 10 nM |  |
| COc1cn(Cc2ccc(F)c(F)c2)c(Nc2cc(OC(F)F)c(C)cc2C)nc1=O [Compound I-0878] |  | < 10 nM |  |
| COc1cn(Cc2ccccc2)c(Nc2cc(C)c(OCC(F)(F)F)cc2C)nc1=O [Compound I-0800] |  | 10 to 100 nM |  |
| COc1cn(Cc2ccc(F)c(Cl)c2)c(Nc2cc(-c3ccccc3)ccc2C)nc1=O [Compound I-0828] |  | 10 to 100 nM |  |
| COc1ncccc1-c1ccc(C)c(Nc2nc(=O)c(OC)cn2Cc2cc(F)cc(F)c2)c1 [Compound I-0831] |  | < 10 nM |  |
| COCCNC(=O)Cc1cn(Cc2ccccc2)c(Nc2cccc(Cl)c2C)nc1=O [Compound I-0340] | 100 to 500 nM |  |  |
| Cc1ccc(Nc2nc(=O)c(F)cn2Cc2cc(F)c(F)c(F)c2)c(C)c1 [Compound I-1193] |  | < 10 nM |  |
| COc1cn(Cc2ccccc2)c(Nc2cc(N3CCCS3(=O)=O)ccc2C)nc1=O [Compound I-0070] | 10 to 100 nM |  |  |
| CCOc1ccc(F)c(Nc2nc(=O)c(F)cn2Cc2cc(F)c(F)c(F)c2)c1 [Compound I-1215] |  | < 10 nM |  |
| COc1cn(Cc2ccc(C)cc2)c(Nc2cccc(Cl)c2C)nc1=O [Compound I-0045] | 500 to 1000 nM |  |  |
| CCc1cc(F)c(OC)cc1Nc1nc(=O)c(OC)cn1Cc1ccccc1 [Compound I-0813] |  | < 10 nM |  |
| COc1cn(Cc2ccccc2)c(Nc2cccc3c2CCNC3)nc1=O [Compound I-0050] | 500 to 1000 nM |  |  |
| COc1cn(Cc2ccc(F)c(Cl)c2)c(Nc2ccc(C)cc2C)nc1=O [Compound I-0376] | < 10 nM |  |  |
| COc1ncccc1-c1ccc(C)c(Nc2nc(=O)c(OC)cn2Cc2cc(F)c(F)c(F)c2)c1 [Compound I-0832] |  | < 10 nM |  |
| COc1ccc(C)c(Nc2nc(=O)c(OC)cn2Cc2cccc(Cl)c2)c1 [Compound I-0627] |  | 10 to 100 nM |  |
| Cc1cc(C)c(Nc2nc(=O)c(C(=O)NCc3ccccc3)cn2Cc2ccccc2)cc1C [Compound I-0284] | 500 to 1000 nM |  |  |
| COc1cn(Cc2ccc(F)c(Cl)c2)c(Nc2cc(C)cc3[nH]ccc23)nc1=O [Compound I-0396] | < 10 nM |  |  |
| COc1cn(Cc2cc(F)cc(Cl)c2)c(Nc2cc(OC(F)F)ccc2C)nc1=O [Compound I-0872] |  | 10 to 100 nM |  |
| Cc1cc2[nH]ccc2cc1Nc1nc(=O)c(F)cn1Cc1ccc(F)c(Cl)c1 [Compound I-1042] |  | < 10 nM |  |
| CCc1cc2c(cc1Nc1nc(=O)c(OC)cn1Cc1ccc(F)cc1)CCC2 [Compound I-0163] | < 10 nM |  |  |

| SMILES | IC50 [1] | IC50 [2] | other results |
| --- | --- | --- | --- |
| Cc1nc2cc(C)c(Nc3nc(=O)c(C)nn3Cc3cc(F)cc(F)c3)cc2s1 [Compound I-1260] |  | 10 to 100 nM |  |
| Cn1ccc2c(Nc3nc(=O)c(F)cn3Cc3ccc(F)c(F)c3)cccc21 [Compound I-1020] |  | < 10 nM |  |
| CCc1ccc(Cl)cc1Nc1nc(=O)c(F)cn1Cc1cc(F)c(F)c(F)c1 [Compound I-1190] |  | < 10 nM |  |
| COc1cn(Cc2ccccc2)c(Nc2ccccc2Cl)nc1=O [Compound I-0060] | 500 to 1000 nM |  |  |
| COc1cc(Cl)c(Nc2nc(=O)c(C)cn2Cc2cc(F)c(F)c(F)c2)cc1OC [Compound I-1139] |  | 10 to 100 nM |  |
| COc1ccc(C)c(Nc2nc(=O)c(F)cn2Cc2ccc(F)c(Cl)c2)c1 [Compound I-1067] |  | < 10 nM |  |
| Cc1cc(C)c(Nc2nc(=O)c(C(=O)NCC(=O)N(C)C)cn2Cc2ccccc2)cc1C [Compound I-0226] | 10 to 100 nM |  |  |
| COc1cn(Cc2cc(F)cc(Cl)c2)c(Nc2ccc(OC(F)F)cc2C)nc1=O [Compound I-0613] |  | 10 to 100 nM |  |
| Cc1nc2[nH]ccc2cc1Nc1nc(=O)c(F)cn1Cc1ccc(F)c(F)c1 [Compound I-1090] |  | 10 to 100 nM |  |
| CCc1ccccc1Nc1nc(=O)c(OC)cn1Cc1ccc(F)c(Cl)c1 [Compound I-0252] | < 10 nM |  |  |
| COc1cnc(Nc2cc(N3CCCC3=O)ccc2C)n(Cc2ccc(F)c(Cl)c2)c1=O [Compound I-0986] |  |  | IC50 [3]: 24 nM |
| COc1ccc(C)cc1Nc1nc(=O)c(OC)cn1Cc1cc(F)c(F)c(F)c1 [Compound I-0936] |  | 10 to 100 nM |  |
| Cc1ccc(-c2nnco2)cc1Nc1nc(=O)c(Cl)cn1Cc1cc(F)cc(F)c1 [Compound I-0699] |  | < 10 nM |  |
| COc1cn(Cc2cc(F)cc(F)c2)c(Nc2cccc3[nH]c(C)cc23)nc1=O [Compound I-0598] |  | 10 to 100 nM |  |
| COc1cn(Cc2cc(F)cc(C(F)(F)F)c2)c(Nc2cccc(Cl)c2C)nc1=O [Compound I-0582] | 100 to 500 nM |  |  |
| COc1cn(Cc2ccc(F)c(F)c2)c(Nc2cc(N3CCCC3=O)ccc2C)nc1=O [Compound I-0646] |  | 10 to 100 nM |  |
| COc1cn(Cc2ccc(F)c(F)c2)c(Nc2cccc(C(F)(F)F)c2C)nc1=O [Compound I-0467] | < 10 nM |  |  |
| COc1cn(Cc2cc(C)cc(F)c2)c(Nc2cccc(Cl)c2C)nc1=O [Compound I-0478] | < 10 nM |  |  |
| COCc1cn(Cc2cc(F)c(F)c(F)c2)c(Nc2ccc(OC(F)F)cc2C)nc1=O [Compound I-1124] |  | 10 to 100 nM |  |
| CCOc1ccc(Nc2nc(=O)c(OC)cn2Cc2cccc(Cl)c2)c(C)c1 [Compound I-0677] |  | 10 to 100 nM |  |
| Cc1nc2cc(C)c(Nc3nc(=O)c(F)cn3Cc3ccc(F)cc3)cc2s1 [Compound I-1011] |  | < 10 nM |  |
| Cc1nc2ccc(Nc3nc(=O)c(F)cn3Cc3cc(F)c(F)c(F)c3)c(C)c2s1 [Compound I-1199] |  | < 10 nM |  |
| COc1cn(Cc2cc(F)cc(Cl)c2)c(Nc2cc(C)c(C)cc2C)nc1=O [Compound I-0381] | < 10 nM |  |  |
| COc1ccc(Nc2nc(=O)c(Cl)nn2Cc2cc(F)c(F)c(F)c2)c(C)c1 [Compound I-1265] |  | 10 to 100 nM |  |

| SMILES | IC50 [1] | IC50 [2] | other results |
| --- | --- | --- | --- |
| CCc1cc(OC)ccc1Nc1nc(=O)c(OC)cn1Cc1ccc(F)c(Cl)c1 [Compound I-0245] | < 10 nM |  |  |
| COc1cn(Cc2ccccc2)c(Nc2cc(OCC(F)(F)F)ccc2C)nc1=O [Compound I-0493] | 10 to 100 nM |  |  |
| Cc1nc2cc(Cl)c(Nc3nc(=O)c(F)cn3Cc3cc(F)c(F)c(F)c3)cc2o1 [Compound I-1078] |  | < 10 nM |  |
| CCc1cc(OC)c(OC)cc1Nc1nc(=O)c(Cl)cn1Cc1ccccc1 [Compound I-0351] | < 10 nM |  |  |
| Cc1c(F)cccc1Nc1nc(=O)c(F)cn1Cc1cc(F)c(F)c(F)c1 [Compound I-1181] |  | < 10 nM |  |
| COc1cn(Cc2ccc(F)c(F)c2)c(Nc2cc(Cl)c(F)cc2C)nc1=O [Compound I-0810] |  | 10 to 100 nM |  |
| COc1cn(Cc2cc(F)c(F)c(F)c2)c(Nc2cc3cc[nH]c3cc2C)nc1=O [Compound I-0938] |  | < 10 nM |  |
| Cc1cc(Nc2nc(=O)c(F)cn2Cc2cc(F)cc(F)c2)c2cc[nH]c2c1 [Compound I-0705] |  | < 10 nM |  |
| COc1cn(Cc2cc(F)cc(F)c2)c(Nc2cccc3c(=O)[nH]ccc23)nc1=O [Compound I-0652] |  |  | IC50 [3]: 34 nM |
| COc1cn(Cc2ccccc2)c(Nc2cc(Cl)c(Cl)cc2C)nc1=O [Compound I-0448] | 10 to 100 nM |  |  |
| COc1cn(Cc2ccc(F)c(Cl)c2)c(Nc2ccc3occc3c2C)nc1=O [Compound I-0799] |  | < 10 nM |  |
| Cc1cc2c(cc1Nc1nc(=O)c(F)cn1Cc1ccc(F)c(Cl)c1)COC2 [Compound I-1026] |  | < 10 nM |  |
| COc1cn(Cc2ccc(F)c(F)c2)c(Nc2cc(OC(C)C)ccc2C)nc1=O [Compound I-0555] | 10 to 100 nM |  |  |
| COc1cn(Cc2ccccc2C)c(Nc2cccc(Cl)c2C)nc1=O [Compound I-0043] | 100 to 500 nM |  |  |
| CCc1cc(F)ccc1Nc1nc(=O)c(F)cn1Cc1cc(F)c(F)c(F)c1 [Compound I-1208] |  | < 10 nM |  |
| CCOc1cn(Cc2ccc(F)c(Cl)c2)c(Nc2cc(OC)c(OC)cc2CC)nc1=O [Compound I-0909] |  | 10 to 100 nM |  |
| COc1cc(Nc2nc(=O)c(F)cn2Cc2ccc(F)c(Cl)c2)c(C)cc1F [Compound I-1051] |  | < 10 nM |  |
| COc1cn(Cc2cc(F)c(F)c(F)c2)c(Nc2cc3c(cc2C)OCC3)nc1=O [Compound I-0866] |  | < 10 nM |  |
| COc1ccc(C)c(Nc2nc(=O)c(OC)cn2Cc2cc(F)c(F)c(F)c2)c1 [Compound I-0625] |  | < 10 nM |  |
| CCOc1cc(C)c(Nc2nc(=O)c(OC)cn2Cc2cc(F)c(F)c(F)c2)cc1C [Compound I-0624] |  | < 10 nM |  |
| COc1cn(Cc2cc(F)cc(Cl)c2)c(Nc2cccc(C)c2C)nc1=O [Compound I-0403] | 10 to 100 nM |  |  |
| CCOc1cc(C)c(Nc2nc(=O)c(F)cn2Cc2ccc(F)c(F)c2)cc1F [Compound I-1062] |  | 10 to 100 nM |  |
| COc1ccc(Nc2nc(=O)cnn2Cc2cc(F)cc(Cl)c2)c(C)c1 [Compound I-1269] |  | 10 to 100 nM |  |
